Measured values published in US20250163370A1, “METHOD FOR INDUCING DIFFERENTIATION OF PLURIPOTENT STEM CELLS INTO RETINAL PIGMENT […]” (OSAKA UNIVERSITY, priority 2022, published 2025).
Entries after “also recorded” stand apart in the source; their conditions may differ.

System: Human skin-derived iPS cells (253G1)
Assay type: cell-based

Substance: hemagglutinin [HA complex]
- differentiation into other cells (RPE cell versus cell group with fibroblast-like morphology): <<cell group; also recorded: <cell group
- formation of cell aggregates in three-dimensional layer structure: small cell; also recorded: smaller cell
- intercellular adhesion of the cell aggregates: moderately loosened
- number of cells that differentiated into RPE cells: increased strikingly
- number of fibroblast-like cell groups (undesired cells observed together with RPE cells): decreased
- size of the cell aggregates: became smaller
